Source: ChEMBL document CHEMBL1149636

Target: Carbonic anhydrase 4 (Homo sapiens) (UniProt P22748)
Sequence (P22748 whole entry): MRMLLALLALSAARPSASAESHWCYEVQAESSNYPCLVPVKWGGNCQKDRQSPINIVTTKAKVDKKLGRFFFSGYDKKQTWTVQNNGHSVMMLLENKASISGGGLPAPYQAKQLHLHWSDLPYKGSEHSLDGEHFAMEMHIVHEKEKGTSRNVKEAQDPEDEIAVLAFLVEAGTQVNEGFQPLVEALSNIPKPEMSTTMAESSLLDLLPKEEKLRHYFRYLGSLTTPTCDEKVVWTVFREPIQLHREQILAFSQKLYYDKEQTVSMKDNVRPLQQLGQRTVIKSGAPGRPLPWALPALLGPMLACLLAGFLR
Description: Inhibition of human recombinant full length CA4 by stopped-flow technique

Kinact: 3.95 µM
SMILES: CCNC1CN(CCCOC)S(=O)(=O)c2sc(S(N)(=O)=O)cc21 (single isomer, unassigned)
